Experimental findings from US20160120802A1, “ORALLY-DISINTEGRATING OSELTAMIVIR TABLET AND METHOD FOR PREPARING THE SAME” (priority 2013, published 2016) are described below.

SMILES strings stand for the structures.

This data set has as its system pigeons. Kind of data set: Pigeons vomiting model. The conditions noted are these: intragastric, equivalent to 30 mg oseltamivir per kg. The procedure:
1. Experimental Animal: Healthy Pigeons (Both Males and Females were Operable), 350±50 g of Weights, Common Grades, and Purchased from a Breeding Base.
70 healthy pigeons were randomly divided into 7 groups and adaptively fed with normal diets for 1 week before the experiment. Diets were prohibited within 4 hrs before the experiment, the room temperature was maintained at between 22 and 24° C., and the feeding environment was kept clean and well ventilated. The pigeons were administered with drugs according to the following groups, the administration dosage corresponded to 30 mg oseltamivir per kg of the pigeon's weight, or the equivalent amount of the starch.
Contrast group A, one group, administered with the raw material of oseltamivir with a dosage equivalent to 30 mg of oseltamivir per kg of the pigeon's weight.
Contrast group B, one group, administered with the polyacrylic acid resin IV with a dosage equivalent to 30 mg of the starch per kg of the pigeon's weight.
Contrast group D, one group, administered with the commercial oseltamivir phosphate capsules manufactured by Roche with a dosage equivalent to 30 mg of oseltamivir per kg of the pigeon's weight.
Observation indexes: latent periods of vomiting (the period from the administration to the first vomiting), vomiting times (occurrences of the vomiting after the drug administration, each occurrence of the vomiting refers to the duration from neck stretching, mouth opening, shrugging, and abdominal contraction of the pigeons to recovery of the quiet state of the pigeons), and vomiting frequencies (referring to the times of neck stretching, mouth opening, shrugging, and abdominal contraction of the pigeons).
The pigeons in each group were taken drugs by intragastric administration with a dosage equivalent to 30 mg of oseltamivir per kg of the pigeon's weight. The latent periods of vomiting (min) after the intragastric administration, as well as the vomiting times and the vomiting frequency in 5 hrs after the intragastric administration were recorded.
In each group, the number of the vomiting pigeons (n) was calculated. For the vomiting pigeons (including vomiting with vomitus and dry vomiting in the absence of vomitus), the latent period of vomiting (min, x±s), the average vomit times, and the average vomit frequencies were calculated, and results were listed in the following table 2.

`CCOC(=O)C1=CC(OC(CC)CC)C(NC(C)=O)C(N)C1` (stereo not shown) [Contrast group A]: the “Note (kind of vomiting)” value is “Seven times of vomiting”. Further, the “Latent period for vomiting” value (vomiting pigeons, x ± s) amounted to 18.9 ± 5.4 min. The “Average vomiting times (within 5 hrs)” value (within 5 hrs) is on record as 11.1. The Vomiting frequencies (within 5 hrs, x ± s) is reported as 15.8 ± 2.1 times.
